Read-outs that look alike come from different tables or passages of the source.
Tested on: Escherichia coli ATCC 25922
Test: 50% growth inhibitory concentration (IC50) determination, Iso-Sensitest broth dilution
Format: cell-based
Settings: strain Escherichia coli ATCC 25922, 10-point broth dilution, optical density at 600 nm over 16 h, read-out: Escherichia coli growth inhibition IC50
How it was run: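 Growth was tracked as optical density at 600 nm every 20 minutes for 16 h at 35±2° C. Compounds from DMSO stocks were serially diluted twofold over 10 points (e.g. 50–0.097 μM final) in Iso-Sensitest broth. Inhibition computed in log-phase growth to give IC50.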

[1] = Escherichia coli, ATCC25922, 16 h

| Compound | IC50 [nM] | IC50 [1] [nM] |
| --- | --- | --- |
| N#Cc1cccc2c1CC(CN1CCC3(CN(c4ccc5c(n4)NC(=O)CO5)C(=O)O3)C(CN)C1)C2 (racemic) [Example 252, 2-[[rac-5,6-trans-6-(Aminomethyl)-2-oxo-3-(3-oxo-4H-pyrido[3,2-b][1,4]oxazin-6-yl)-1-oxa-3,8-diazaspiro[4.5]decan-8-yl]methyl]-2,3-dihydro-1H-indene-4-carbonitrile; formic acid] | 156 | – |
| N#Cc1cccc2c1CC(CNCCc1nn(-c3ccc4c(c3)NC(=O)CO4)c(=O)o1)C2 (centres unmarked) [Example 42, 2-[[2-[5-oxo-4-(3-oxo-4H-1,4-benzoxazin-6-yl)-1,3,4-oxadiazol-2-yl]ethylamino]methyl]-2,3-dihydro-1H-indene-4-carbonitrile; formic acid] | – | 158 |
| CCn1cc(C(=O)O)c(=O)c2ccc3c(c21)CC(CNCCC1CN(c2ccc4c(n2)NC(=O)CO4)C(=O)O1)C3 (centres unmarked) [Example 275, 1-Ethyl-4-oxo-8-[[2-[2-oxo-3-(3-oxo-4H-pyrido[3,2-b][1,4]oxazin-6-yl)-1,3-oxazolidin-5-yl]ethylamino]methyl]-8,9-dihydro-7H-cyclopenta[h]quinoline-3-carboxylic acid] | – | 592 |
| Cc1c(OCC2(N)CC2)ncc2c1CC(CNCCC1CN(c3ccc4c(n3)NC(=O)CO4)C(=O)O1)C2 (centres unmarked) [Example 217, 6-[5-[2-[[3-[(1-aminocyclopropyl)methoxy]-4-methyl-6,7-dihydro-5H-cyclopenta[c]pyridin-6-yl]methylamino]ethyl]-2-oxo-1,3-oxazolidin-3-yl]-4H-pyrido[3,2-b][1,4]oxazin-3-one] | – | < 97.7 |
| Cc1ncc(C#N)c2c1CC(CNCCC1CN(c3cnc4c(n3)NC(=O)CO4)C(=O)O1)C2 (centres unmarked) [Example 291, 1-methyl-6-[[2-[2-oxo-3-(3-oxo-4H-pyrazino[2,3-b][1,4]oxazin-6-yl)-1,3-oxazolidin-5-yl]ethylamino]methyl]-6,7-dihydro-5H-cyclopenta[c]pyridine-4-carbonitrile;2,2,2-trifluoroacetic acid] | – | < 97.7 |
| Cc1c(OCC2(N)CC2)nc(C#N)c2c1CC(CNCCC1CN(c3ccc4c(n3)NC(=O)CO4)C(=O)O1)C2 (centres unmarked) [Example 213, 3-[(1-aminocyclopropyl)methoxy]-4-methyl-6-[[2-[2-oxo-3-(3-oxo-4H-pyrido[3,2-b][1,4]oxazin-6-yl)-1,3-oxazolidin-5-yl]ethylamino]methyl]-6,7-dihydro-5H-cyclopenta[c]pyridine-1-carbonitrile] | – | < 97.7 |
| CC(C)(O)COc1cc(F)c2c(c1)CC(CNCCC1CN(c3cnc4c(n3)NC(=O)CO4)C(=O)O1)C2 (centres unmarked) [Example 292, 6-[5-[2-[[4-fluoro-6-(2-hydroxy-2-methylpropoxy)-2,3-dihydro-1H-inden-2-yl]methylamino]ethyl]-2-oxo-1,3-oxazolidin-3-yl]-4H-pyrazino[2,3-b][1,4]oxazin-3-one] | – | 403 |
| NC1c2cccc(Cl)c2CC1CNCCc1nn(-c2ccc3c(c2)NC(=O)CO3)c(=O)o1 (racemic) [Example 147, 6-[2-oxo-5-[2-[[rac-1,2-trans-1-amino-4-chloro-2,3-dihydro-1H-inden-2-yl]methylamino]ethyl]-1,3,4-oxadiazol-3-yl]-4H-1,4-benzoxazin-3-one; formic acid] | – | < 97.7 |
| N#Cc1cccc2c1CC(CNCC1CN(c3ccc4c(n3)NC(=O)CO4)C(=O)O1)C2N (racemic) [Example 229, rac-1,2-trans-1-Amino-2-((((2-oxo-3-(3-oxo-3,4-dihydro-2H-pyrido[3,2-b][1,4]oxazin-6-yl)oxazolidin-5-yl)methyl)amino)methyl)-2,3-dihydro-1H-indene-4-carbonitrile] | – | 1570 |
| CNC(=O)COc1ccc2c(c1C#N)CC(CNCCC1CN(c3cnc4c(n3)NC(=O)CO4)C(=O)O1)C2 (centres unmarked) [Example 286, 2-[[4-cyano-2-[[2-[2-oxo-3-(3-oxo-4H-pyrazino[2,3-b][1,4]oxazin-6-yl)-1,3-oxazolidin-5-yl]ethylamino]methyl]-2,3-dihydro-1H-inden-5-yl]oxy]-N-methylacetamide] | – | < 97.7 |
| NC1(COc2cc(Cl)c3c(c2)CC(CNCCC2CN(c4ccc5c(n4)NC(=O)CO5)C(=O)O2)C3)CC1 (centres unmarked) [Example 178, 6-[5-[2-[[6-[(1-aminocyclopropyl)methoxy]-4-chloro-2,3-dihydro-1H-inden-2-yl]methylamino]ethyl]-2-oxo-1,3-oxazolidin-3-yl]-4H-pyrido[3,2-b][1,4]oxazin-3-one] | – | < 97.7 |
| Cc1nc(OCC2(N)CC2)c(C)c2c1CC(CNCCC1CN(c3ccc4c(n3)NC(=O)CO4)C(=O)O1)C2 (centres unmarked) [Example 172, 6-[5-[2-[[3-[(1-aminocyclopropyl)methoxy]-1,4-dimethyl-6,7-dihydro-5H-cyclopenta[c]pyridin-6-yl]methylamino]ethyl]-2-oxo-1,3-oxazolidin-3-yl]-4H-pyrido[3,2-b][1,4]oxazin-3-one] | – | < 97.7 |
| N#Cc1cccc2c1CC(NCCCC1CN(c3ccc4c(n3)NC(=O)CO4)C(=O)O1)C2 (centres unmarked) [Example 13, 2-[3-[2-oxo-3-(3-oxo-4H-pyrido[3,2-b] [1,4]oxazin-6-yl)-1,3-oxazolidin-5-yl]propylamino]-2,3-dihydro-1H-indene-4-carbonitrile; formic acid] | – | < 97.7 |
| O=C1COc2ncc(N3CC(CCNCC4Cc5cccc(Cl)c5C4)OC3=O)nc2N1 (centres unmarked) [Example 281, 6-[5-[2-[(4-Chloro-2,3-dihydro-1H-inden-2-yl)methylamino]ethyl]-2-oxo-1,3-oxazolidin-3-yl]-4H-pyrazino[2,3-b][1,4]oxazin-3-one] | – | < 97.7 |
| CNC(=O)COc1cc2c(c(Cl)n1)CC(CNCCC1CN(c3ccc4c(n3)NC(=O)CO4)C(=O)O1)C2 (centres unmarked) [Example 66, 2-[[1-chloro-6-[[2-[2-oxo-3-(3-oxo-4H-pyrido[3,2-b][1,4]oxazin-6-yl)oxazolidin-5-yl]ethylamino]methyl]-6,7-dihydro-5H-cyclopenta[c]pyridin-3-yl]oxy]-N-methyl-acetamide] | – | 234 |
| N#Cc1cc(OCCN)cc2c1CC(CNCCC1CN(c3ccc4c(n3)NC(=O)CO4)C(=O)O1)C2 (centres unmarked) [Example 188, 6-(2-aminoethoxy)-2-[[2-[2-oxo-3-(3-oxo-4H-pyrido[3,2-b][1,4]oxazin-6-yl)-1,3-oxazolidin-5-yl]ethylamino]methyl]-2,3-dihydro-1H-indene-4-carbonitrile] | – | < 97.7 |
| N#Cc1c(OC2COC2)ccc2c1CC(CNCCC1CN(c3ccc4c(n3)NC(=O)CO4)C(=O)O1)C2 (centres unmarked) [Example 63, 5-(oxetan-3-yloxy)-2-[[2-[2-oxo-3-(3-oxo-4H-pyrido[3,2-b][1,4]oxazin-6-yl)-1,3-oxazolidin-5-yl]ethylamino]methyl]-2,3-dihydro-1H-indene-4-carbonitrile] | – | < 97.7 |

Now from value to compound:

| IC50 [nM] | IC50 [1] [nM] | Compound |
| --- | --- | --- |
| – | 311 | O=C1COc2ncc(N3CC(CCNCC4Cc5cc(OCC(=O)NC6CC6)cc(F)c5C4)OC3=O)nc2N1 (centres unmarked) [Example 346, N-cyclopropyl-2-[[7-fluoro-2-[[2-[2-oxo-3-(3-oxo-4H-pyrazino[2,3-b][1,4]oxazin-6-yl)-1,3-oxazolidm-5-yl]ethylamino]methyl]-2,3-dihydro-1H-inden-5-yl]oxy]acetamide; formic acid] |
| – | 202 | O=C1COc2ncc(N3CC(CCNCC4Cc5cc(OCCn6ccnn6)cc(F)c5C4)OC3=O)nc2N1 (centres unmarked) [Example 344, 6-[5-[2-[[4-fluoro-6-[2-(triazol-1-yl)ethoxy]-2,3-dihydro-1H-inden-2-yl]methylamino]ethyl]-2-oxo-1,3-oxazolidin-3-yl]-4H-pyrazino[2,3-b][1,4]oxazin-3-one; formic acid] |
| – | 205 | CS(=O)(=O)NCCOc1cc(F)c2c(c1)CC(CNCCC1CN(c3cnc4c(n3)NC(=O)CO4)C(=O)O1)C2 (centres unmarked) [Example 324, N-[2-[[7-fluoro-2-[[2-[2-oxo-3-(3-oxo-4H-pyrazino[2,3-b][1,4]oxazin-6-yl)-1,3-oxazolidin-5-yl]ethylamino]methyl]-2,3-dihydro-1H-inden-5-yl]oxy]ethyl]methanesulfonamide] |
| – | < 97.7 | Cc1c(F)cnc2c1CC(CN1CCC3(CC1)CN(c1cnc4c(n1)NC(=O)CO4)C(=O)O3)C2 (centres unmarked) [Example 301, 6-[8-[(3-fluoro-4-methyl-6,7-dihydro-5H-cyclopenta[b]pyridin-6-yl)methyl]-2-oxo-1-oxa-3,8-diazaspiro[4.5]decan-3-yl]-4H-pyrazino[2,3-b][1,4]oxazin-3-one] |
| < 97.7 | – | Cc1ncc(C#N)c2c1CC(NCCCc1cn(-c3cnc4c(n3)NC(=O)CO4)c(=O)o1)C2 (single isomer, unassigned; enantiomer b) [Example 322, 1-Methyl-6-[3-[2-oxo-3-(3-oxo-4H-pyrazino[2,3-b][1,4]oxazin-6-yl)-1,3-oxazol-5-yl]propylamino]-6,7-dihydro-5H-cyclopenta[c]pyridine-4-carbonitrile, Enantiomer B] |
| – | 336 | Cc1ncc(F)c2c1CC(CN[C@H]1C[C@H](C3CN(c4cnc5c(n4)NC(=O)CO5)C(=O)O3)C1)C2 (stereo partly drawn) [Example 361, 6-[5-[trans-3-[(4-fluoro-1-methyl-6,7-dihydro-5H-cyclopenta[c]pyridin-6-yl)methylamino]cyclobutyl]-2-oxo-1,3-oxazolidin-3-yl]-4H-pyrazino[2,3-b][1,4]oxazin-3-one] |
| – | < 97.7 | Cc1ncc(F)c2c1C[C@H](CNCC[C@@H]1CN(c3cnc4c(n3)NC(=O)CO4)C(=O)O1)C2 [Example 430] |
| – | 381 | O=C1COc2ncc(N3CC(CCNCC4Cc5cc(OCCn6cncn6)cc(F)c5C4)OC3=O)nc2N1 (centres unmarked) [Example 296, 6-[5-[2-[[4-fluoro-6-[2-(l,2,4-triazol-1-yl)ethoxy]-2,3-dihydro-1H-inden-2-yl]methylamino]ethyl]-2-oxo-1,3-oxazolidin-3-yl]-4H-pyrazino[2,3-b][1,4]oxazin-3-one; formic acid] |
| – | < 97.7 | CC(C)(N)COc1cc(F)c2c(c1)CC(CNCC[C@H]1CN(c3cnc4c(n3)NC(=O)CO4)C(=O)O1)C2 (stereo partly drawn) [Example 341, 6-[(5S)-5-[2-[[6-(2-amino-2-methylpropoxy)-4-fluoro-2,3-dihydro-1H-inden-2-yl]methylamino]ethyl]-2-oxo-1,3-oxazolidin-3-yl]-4H-pyrazino[2,3-b][1,4]oxazin-3-one; formic acid] |

From patent publication US20230167127A1, “COMPOUNDS AND THEIR USE IN THE TREATMENT OF BACTERIAL INFECTION” (Hoffmann-La Roche Inc., priority 2020, published 2023)
